Assay results as given in patent publication US4822778A, “Membrane stabilizing phenoxy-piperidine compounds and pharmaceutical compositions employing such compounds” (Aberg; Gunnar, priority 1988, dated 1989).

Tested on: not listed separately
Test: in vivo
Details: mouse, sc

Compound	LD50 [mg/kg]
CCCN1CCCCC1COc1c(C)cccc1C (stereo not drawn) [Example 6, N-(n-propyl)-2-[(2,6-xyloxy)methyl]piperidine]	200
CCCCN1CCCCC1COc1c(C)cccc1C (stereo not drawn) [Example 7, N-(n-butyl)-2-[(2,6-xyloxy)methyl]piperidine]	225
Cc1ccc(OCC2CCCCN2C)c(C)c1 (stereo not drawn) [Example 8]	400
Cc1ccc(C)c(OCC2CCCCN2C)c1 (stereo not drawn) [Example 9]	400
CN1CCCCC1COc1ccccc1 (stereo not drawn) [Example 10]	150
Cc1ccccc1OCC1CCCCN1C (stereo not drawn) [Example 11]	300
Cc1cccc(C)c1OCC1CCCCN1CCO (stereo not drawn) [Example 12]	220

Tested on: sciatic nerve
Test: Nerve blocking effects in rats in vivo
Details: 0.25 ml of 0.5% by weight solution
Procedure: B. Nerve blocking effects. The tests were carried out in vivo in rats after injection of 0.25 ml of the test solutions close to the sciatic nerve.

Compound	Nerve blocking effect, Motoric blockade [min]	Nerve blocking effect, Sensoric blockade [min]
CCCN1CCCCC1COc1c(C)cccc1C (stereo not drawn) [Example 6, N-(n-propyl)-2-[(2,6-xyloxy)methyl]piperidine]	145	155
CCCCN1CCCCC1COc1c(C)cccc1C (stereo not drawn) [Example 7, N-(n-butyl)-2-[(2,6-xyloxy)methyl]piperidine]	140	160
Cc1ccc(OCC2CCCCN2C)c(C)c1 (stereo not drawn) [Example 8]	55	75
Cc1ccc(C)c(OCC2CCCCN2C)c1 (stereo not drawn) [Example 9]	75	95
CN1CCCCC1COc1ccccc1 (stereo not drawn) [Example 10]	25	40
Cc1ccccc1OCC1CCCCN1C (stereo not drawn) [Example 11]	60	85
Cc1cccc(C)c1OCC1CCCCN1CCO (stereo not drawn) [Example 12]	95	95
CCN(CC)CC(=O)Nc1c(C)cccc1C [Lidocaine, reference compound]	40	35

Tested on: guinea pigs
Test: Infiltration anesthetic effects, intracutaneous injection in guinea pigs
Assay type: in vivo
Details: 0.2 ml of 0.5% by weight solution
Procedure: 1. […] A. Infiltration anesthetic effects: The effects of the new compounds were tested according to Aberg & […], Acta Anaesth.

Compound	Infiltration anesthesia duration [min]
CCCN1CCCCC1COc1c(C)cccc1C (stereo not drawn) [Example 6, N-(n-propyl)-2-[(2,6-xyloxy)methyl]piperidine]	175
CCCCN1CCCCC1COc1c(C)cccc1C (stereo not drawn) [Example 7, N-(n-butyl)-2-[(2,6-xyloxy)methyl]piperidine]	165
Cc1ccc(OCC2CCCCN2C)c(C)c1 (stereo not drawn) [Example 8]	35
Cc1ccc(C)c(OCC2CCCCN2C)c1 (stereo not drawn) [Example 9]	25
CN1CCCCC1COc1ccccc1 (stereo not drawn) [Example 10]	35
Cc1ccccc1OCC1CCCCN1C (stereo not drawn) [Example 11]	55
Cc1cccc(C)c1OCC1CCCCN1CCO (stereo not drawn) [Example 12]	40
CCN(CC)CC(=O)Nc1c(C)cccc1C [Lidocaine, reference compound]	25

Tested on: ventricular arrhythmias
Test: Antiarrhythmic effects, ouabain-induced ventricular arrhythmias in anesthetized dogs
Assay type: in vivo
Details: i.v., 1 mg/kg
Procedure: 2. Antiarrhythmic effects.
Ventricular arrhythmias were induced in anesthetized dogs by intravenous injection of ouabain: initially 40 μg/kg bodyweight and thereafter 20 μg/kg bodyweight every 20 minutes until the ventricular arrhythmia was regarded as manifest. Lidocaine was also tested by the same procedure. The new compounds were compared with lidocaine, a known antiarrhythmic compound.

Compound	Duration of regularization [min]
CCCN1CCCCC1COc1c(C)cccc1C (stereo not drawn) [Example 6, N-(n-propyl)-2-[(2,6-xyloxy)methyl]piperidine]	4
CCCCN1CCCCC1COc1c(C)cccc1C (stereo not drawn) [Example 7, N-(n-butyl)-2-[(2,6-xyloxy)methyl]piperidine]	4
CCN(CC)CC(=O)Nc1c(C)cccc1C [Lidocaine, reference compound]	2

Same assay, conditions: i.v., 2 mg/kg

Compound	Duration of regularization [min]
CCN(CC)CC(=O)Nc1c(C)cccc1C [Lidocaine, reference compound]	4

Tested on: cynomolgus monkeys
Test: Spinal anesthetic effects in monkeys, intrathecal injection
Assay type: in vivo
Details: intrathecal 1.0 ml, 3.0% by wt.
Procedure: D. Spinal Anesthetic Effects.
Spinal anesthetsias were performed on cynomolgus monkeys that had been sedated with ketamine (6 mg/kg; i.m.). 1.0 ml of the test solutions were injected intrathecally and the durations were tested every ten (10) minutes with forceps. The duration of motoric blockade was calculated as the time until the hind leg paralysis ceased.

Compound	Duration, Anal Blockade [min]	Duration, Digital Blockade [min]	Duration, Motor Blockade [min]
CCCN1CCCCC1COc1c(C)cccc1C (stereo not drawn) [Example 6, N-(n-propyl)-2-[(2,6-xyloxy)methyl]piperidine]	> 291	222	> 198

Same assay, conditions: intrathecal 1.0 ml, 5.0% by wt.

Compound	Duration, Anal Blockade [min]	Duration, Digital Blockade [min]	Duration, Motor Blockade [min]
CCN(CC)CC(=O)Nc1c(C)cccc1C [Lidocaine, reference compound]	150	88	73

Tested on: rabbit cornea
Test: Topical anesthetic effects, corneal test in rabbits in vivo
Details: 0.25 ml, concentration 1.0%
Procedure: C. Topical anesthetic effects. Corneal tests were carried out in rabbits in vivo according to Henn.

Compound	Topical anesthetic effect, Duration [min]	Topical anesthetic effect, Onset frequency
CCCN1CCCCC1COc1c(C)cccc1C (stereo not drawn) [Example 6, N-(n-propyl)-2-[(2,6-xyloxy)methyl]piperidine]	24 ± 2	9/9
CCCCN1CCCCC1COc1c(C)cccc1C (stereo not drawn) [Example 7, N-(n-butyl)-2-[(2,6-xyloxy)methyl]piperidine]	27 ± 4	10/10

Same assay, conditions: 0.25 ml, concentration 4.0%

Compound	Topical anesthetic effect, Duration [min]	Topical anesthetic effect, Onset frequency
CCN(CC)CC(=O)Nc1c(C)cccc1C [Lidocaine, reference compound]	23 ± 3	10/10

Tested on: not listed separately
Test: Convulsive and lethal doses in rats, intravenous infusion
Assay type: in vivo
Details: rat, in vivo, iv; male rats, i.v. at 1.0 mg/kg/min; read-out: Convulsive dose
Procedure: (§1) Convulsive doses and lethal doses after intravenous administration for selected compounds of the invention and for Bupivacaine are shown in Table 3 below.
(§2) Convulsive and lethal doses of selected compounds
(§3) administered intravenously at 1.0 mg/kg/min to rats (male;

Compound	TD50 [mg/kg]
CCCN1CCCCC1COc1c(C)cccc1C (stereo not drawn) [Example 6, N-(n-propyl)-2-[(2,6-xyloxy)methyl]piperidine]	11
CCCCN1CCCCC1COc1c(C)cccc1C (stereo not drawn) [Example 7, N-(n-butyl)-2-[(2,6-xyloxy)methyl]piperidine]	16

Tested on: rats
Test: as above
Assay type: in vivo
Details: male rats, i.v. at 1.0 mg/kg/min
Procedure: as §1, §2, §3

Compound	Lethal dose [mg/kg]
CCCN1CCCCC1COc1c(C)cccc1C (stereo not drawn) [Example 6, N-(n-propyl)-2-[(2,6-xyloxy)methyl]piperidine]	20
CCCCN1CCCCC1COc1c(C)cccc1C (stereo not drawn) [Example 7, N-(n-butyl)-2-[(2,6-xyloxy)methyl]piperidine]	24
